What all share (type): cell-based
In assay [1] the target is T1, human β3-adrenergic receptor (Homo sapiens, UniProt P13945).
T1 construct: A full-length human β3 gene is obtained from a human genomic library (made by Clontech) using this as the probe; expressed in transfected cells; host or cells: CHO (Chinese hamster ovary) cells, pcDNA3
Briefly: Test Case 1-B: human β3-adrenergic receptor agonist activity (cAMP-Screen, 96-well). Particulars: for Emax: 0.5 h, read-out: β3 receptor I.A.; for pEC50 / β3 receptor I.A.: Test Case 1-B; for pEC50: CHO cells, cAMP; for β3 receptor I.A.: maximum response of isoproterenol = 100%. Summed up:
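CHO cells stably transfected with full-length human β3 gene, serum-starved 15 min, then exposed to serially diluted compound in Ham's F-12 with 100 mmol/L HEPES and 1 mmol/L IBMX (diluent concentrations) for 30 min. Cells lysed 30 min at 37 °C; cAMP quantified by cAMP-Screen immunoassay.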

The target of assay [2] is T2, human α1A-adrenergic receptor (Homo sapiens, UniProt P35348).
T2 sequence (P35348 1-466): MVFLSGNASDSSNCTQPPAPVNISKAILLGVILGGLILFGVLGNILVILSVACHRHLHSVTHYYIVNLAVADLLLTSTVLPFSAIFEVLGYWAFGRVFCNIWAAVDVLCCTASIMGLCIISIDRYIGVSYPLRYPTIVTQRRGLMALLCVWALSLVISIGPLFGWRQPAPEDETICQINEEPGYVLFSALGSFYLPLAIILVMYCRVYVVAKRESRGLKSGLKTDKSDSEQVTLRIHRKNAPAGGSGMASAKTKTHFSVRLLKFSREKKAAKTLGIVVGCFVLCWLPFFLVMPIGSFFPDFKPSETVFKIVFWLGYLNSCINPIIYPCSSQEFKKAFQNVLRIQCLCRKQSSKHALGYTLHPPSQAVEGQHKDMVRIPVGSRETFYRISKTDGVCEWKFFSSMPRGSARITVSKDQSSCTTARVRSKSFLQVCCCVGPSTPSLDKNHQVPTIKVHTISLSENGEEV
The assay is described as follows: Test Case 4-B: human α1A-adrenergic receptor agonist activity (Cerep cellular functional GPCR, alpha 1A). Also on record: expressed in transfected cells. Particulars: concentration 10 μM; for α1 receptor % of Control Agonist Response, Control; Epinephrine: epinephrine = 100%; for α1 receptor % of Control Agonist Response, Control; Norepinephrine: norepinephrine = 100%. The source says: Measurement of Human α1A-Adrenergic Receptor Agonist Activity
The human α1A-adrenergic receptor agonist activity] can be measured by […] Functional GPCR·Gs, alpha 1A (Ref. 722-36a) listed on p. 52 of the Cerep 2008 CATALOG IN VITRO PHARMACOLOGY & ADME-TOX.

For assay [3], the target named is T3, human β2-adrenergic receptor (Homo sapiens, UniProt P07550).
T3 construct: expressed in transfected cells; host or cells: CHO (Chinese hamster ovary) cells, pcDNA3
Briefly: Test Case 3-C: human β2-adrenergic receptor agonist activity (Cerep cellular functional GPCR, beta 2). The settings on record: concentration 10 μM, isoproterenol = 100%. The source says:
Measurement of Human β2-Adrenergic Receptor Agonist Activity

Assay [4] deals with T4, human β1-adrenergic receptor (Homo sapiens, UniProt P08588).
T4 construct: expressed in transfected cells; host or cells: CHO (Chinese hamster ovary) cells, pcDNA3
The assay is described as follows: Test Case 2-C: human β1-adrenergic receptor agonist activity (Cerep cellular functional GPCR, beta 1). Particulars: concentration 10 μM, isoproterenol = 100%. The source says: Measurement of Human β1-Adrenergic Receptor Agonist Activity

The target in assay [5] is T2, human α1A-adrenergic receptor. Briefly: Test Case 4-A: human α1A-adrenergic receptor agonist activity (HEK293, Ca flux, Fura-2). More on the design: expressed in transfected cells; host or cells: HEK293 cells, pcDNA3.1. In outline:
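Fura-2AM-loaded HEK293 cells transfected with human α1A were preincubated for 180 s. Compound (sample plate 10^−5 to 10^−12 M) was added after ~30 s of 340/380 nm excitation ratio reading (500 nm emission, 2-s intervals), followed by 270 s more reading. Ca flux is the peak height: maximum ratio after addition minus the pre-addition ratio.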

pEC50: −log10 of the molar value.

T1 sequence (P13945 whole entry): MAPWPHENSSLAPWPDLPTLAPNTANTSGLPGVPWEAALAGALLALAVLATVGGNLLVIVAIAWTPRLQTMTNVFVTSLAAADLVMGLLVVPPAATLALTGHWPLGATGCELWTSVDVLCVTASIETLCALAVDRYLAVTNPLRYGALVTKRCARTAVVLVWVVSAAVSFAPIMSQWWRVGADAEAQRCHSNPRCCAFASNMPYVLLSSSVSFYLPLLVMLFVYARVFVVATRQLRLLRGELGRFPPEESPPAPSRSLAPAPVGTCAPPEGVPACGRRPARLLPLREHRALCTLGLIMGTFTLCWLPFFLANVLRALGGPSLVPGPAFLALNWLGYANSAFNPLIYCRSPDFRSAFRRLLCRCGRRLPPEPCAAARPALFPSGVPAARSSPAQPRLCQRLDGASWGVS
T4 sequence (P08588 whole entry): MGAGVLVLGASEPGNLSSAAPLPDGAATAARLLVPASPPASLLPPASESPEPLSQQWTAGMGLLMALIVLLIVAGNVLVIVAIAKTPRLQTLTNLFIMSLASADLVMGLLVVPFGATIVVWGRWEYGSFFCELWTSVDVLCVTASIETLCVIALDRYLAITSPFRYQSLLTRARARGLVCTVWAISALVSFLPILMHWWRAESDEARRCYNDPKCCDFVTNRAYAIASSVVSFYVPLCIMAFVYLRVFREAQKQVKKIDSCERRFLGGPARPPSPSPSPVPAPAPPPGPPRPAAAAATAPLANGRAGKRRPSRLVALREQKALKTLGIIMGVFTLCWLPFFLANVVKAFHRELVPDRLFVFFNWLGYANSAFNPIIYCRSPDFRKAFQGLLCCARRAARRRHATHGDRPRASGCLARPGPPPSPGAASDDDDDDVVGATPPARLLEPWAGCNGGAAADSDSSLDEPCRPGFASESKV

Regarding `COc1n[nH]c2cc(OCCNC[C@H](O)c3cccc(NS(=O)(=O)c4cccnc4F)c3)ccc12` [ex24, (R)-2-fluoro-N-(3-(1-hydroxy-2-(2-(3-methoxyindazol-6-yloxy)ethylamino)ethyl)phenyl)pyridine-3-sulfonamide], the Emax in assay [1] stood at 41%. Moreover, in assay [2], the “α1 receptor % of Control Agonist Response, Control; Epinephrine” value (from here on “α1 receptor % … Control; Epinephrine”) was 5.6% and the “α1 receptor % of Control Agonist Response, Control; Norepinephrine” value (shortened to “α1 receptor % … Norepinephrine”) turned out to be 4.8%. Further, the “β2 receptor % of Control Agonist Response” value (from here on “β2 receptor %”) in assay [3] came out at 1.2%. Also, the “β1 receptor % of Control Agonist Response” value (“β1 receptor %” below) in assay [4] came to 6.1%.
The pEC50 is −log10 of the EC50, conventionally taken in molar units. For the compound `Cc1n[nH]c2cc(OCCNC[C@H](O)c3cccc(NS(=O)(=O)c4c(F)cccc4F)c3)ccc12` [ex71, (R)-2,6-difluoro-N-(3-(1-hydroxy-2-(2-(3-methylindazol-6-yloxy)ethylamino)ethyl)phenyl) benzenesulfonamide], in assay [1], the pEC50 was 6.82 and the “β3 receptor I.A.” value amounted to 96%. Besides, in assay [2], the “α1 receptor % … Control; Epinephrine” value is listed as 4.3% and the “α1 receptor % … Norepinephrine” value is 3.7%. In assay [3], the “β2 receptor %” value was found to be 1.5%. Besides, in assay [5] (Test Case 4-A, maximum response of norepinephrine = 100%, Table 4), the “α1A receptor I.A.” value is given as 2%. Further, the “β1 receptor %” value in assay [4] is listed as 32%.
For `Cc1n[nH]c2cc(OCCNC[C@H](O)c3cccc(NS(=O)(=O)c4cc(F)ccc4F)c3)ccc12` [ex72, (R)-2, ? -difluoro-N-(3-(1-hydroxy-2-(2-(3-methylindazol-6-yloxy)ethylamino)ethyl)phenyl) benzenesulfonamide], in assay [1], the Emax worked out at 92% and the pEC50 is 8.08. In assay [2], the “α1 receptor % … Control; Epinephrine” value came to 6.8% and the “α1 receptor % … Norepinephrine” value came to 5.9%. The “β2 receptor %” value in assay [3] is reported as 1.8%. In addition, in assay [5] (HEK293, read-out: α1A receptor I.A.), the Emax turned out to be 1%. For the same compound, the “β1 receptor %” value in assay [4] is listed as 19%.
For `Cc1n[nH]c2cc(OCCNC[C@H](O)c3cccc(NS(=O)(=O)c4cccnc4F)c3)ccc12` [ex86], in assay [1], the pEC50 was 6.40 and the “β3 receptor I.A.” value is recorded as 80%. Moreover, in assay [2], the “α1 receptor % … Control; Epinephrine” value was −0.4% and the “α1 receptor % … Norepinephrine” value is reported as −0.3%. The “β2 receptor %” value in assay [3] is given as −0.7%. The “β1 receptor %” value in assay [4] turned out to be 8.8%.
Consider `O=S(=O)(Nc1cccc([C@@H](O)CNCCOc2ccc3c(Cl)n[nH]c3c2)c1)c1cccnc1` [ex156, (R)-N-(3-(2-(2-(3-chloroindazol-6-yloxy)ethylamino)-1-hydroxyethyl)phenyl)pyridine-3-sulfonamide], for which, in assay [2] (10 µM), the “α1 receptor % … Control; Epinephrine” value came out at 3.9% and the “α1 receptor % … Norepinephrine” value was 3.4%. Besides, the “β2 receptor %” value in assay [3] (10 µM) is listed as 3.5%. Moreover, the “β1 receptor %” value in assay [4] amounted to 12%.
As to `O=S(=O)(Nc1cccc([C@@H](O)CNCCOc2ccc3c(Cl)n[nH]c3c2)c1)c1ccsc1` [ex157, (R)-N-(3-(2-(2-(3-chloroindazol-6-yloxy)ethylamino)-1-hydroxyethyl)phenyl)thiophene-3-sulfonamide], in assay [2], the “α1 receptor % … Control; Epinephrine” value is recorded as 8.1% and the “α1 receptor % … Norepinephrine” value is listed as 7.0%. In assay [3], the “β2 receptor %” value is 3.2%. For the same compound, the “β1 receptor %” value in assay [4] was 7.0%.
In the case of `O=S(=O)(Nc1cccc([C@@H](O)CNCCOc2ccc3c(Cl)n[nH]c3c2)c1)c1cn[nH]c1` [ex167, (R)-N-(3-(2-(2-(3-chloroindazol-6-yloxy)ethylamino)-1-hydroxyethyl)phenyl)pyrazole-4-sulfonamide], in assay [2], the “α1 receptor % … Control; Epinephrine” value worked out at 26% and the “α1 receptor % … Norepinephrine” value is 22%. In addition, the “β2 receptor %” value in assay [3] turned out to be 0.3%. Moreover, in assay [4], the “β1 receptor %” value stood at 6.4%.
For the compound `Nc1ccc(F)c(S(=O)(=O)Nc2cccc([C@@H](O)CNCCOc3ccc4c(C(F)(F)F)n[nH]c4c3)c2)c1` [ex185, (R)-5-amimo-2-fluoro-N-(3-(1-hydroxy-2-(2-(3-(trifluoro-methyl)-indazol-6-yloxy)ethylamino)ethyl)phenyl)ben-zenesulfonamide], in assay [2], the “α1 receptor % … Control; Epinephrine” value is 6.4% and the “α1 receptor % … Norepinephrine” value was found to be 6%. Moreover, the “β2 receptor %” value in assay [3] stood at 0.3%. For the same compound, the “β1 receptor %” value in assay [4] is on record as 13%.
On to `O=S(=O)(Nc1cccc([C@@H](O)CNCCOc2ccc3c(C(F)(F)F)n[nH]c3c2)c1)c1cccnc1` [ex186, (R)-N-(3-(1-hydroxy-2-(2-(3-(trifluoromethyl)-indazol-6-yloxy)ethylamino)ethyl)phenyl)pyridine-3-sulfonamide], for which, in assay [2], the “α1 receptor % … Control; Epinephrine” value turned out to be 0.6% and the “α1 receptor % … Norepinephrine” value was determined as 0.5%. The “β2 receptor %” value in assay [3] amounted to 1.9%. In addition, the “β1 receptor %” value in assay [4] was determined as 7.2%.
`O=S(=O)(Nc1cccc([C@@H](O)CNCCOc2ccc3c(C(F)(F)F)n[nH]c3c2)c1)c1cn[nH]c1` [ex198, (R)-N-(3-(1-hydroxy-2-(2-(3-(trifluoromethyl)-indazol-6-yloxy)ethylamino)ethyl)phenyl)-pyrazole-4-sulfonamide]: in assay [2], the “α1 receptor % … Control; Epinephrine” value was 19% and the “α1 receptor % … Norepinephrine” value is 17%. Moreover, in assay [3], the “β2 receptor %” value is on record as −0.5%. Also, in assay [4], the “β1 receptor %” value is 3.5%.
For `O=S(=O)(Nc1cc([C@@H](O)CNCCOc2ccc3c(C(F)(F)F)n[nH]c3c2)ccc1Cl)C1CC1` [ex199, (R)-N-(2-chloro-5-(1-hydroxy-2-(2-(3-(tri-fluoromethyl)-indazol-6-yloxy)ethylamino)-ethyl)phenyl)-cyclo-propanesulfonamide], in that order: 17%, 15%, 8.8% and 8.0%.
As for `Nc1cccc(S(=O)(=O)Nc2cccc([C@@H](O)CNCCOc3ccc4c(C5CC5)n[nH]c4c3)c2)c1F` [ex215, (R)-3-amino-N-(3-(2-(2-(3-cyclopropyl-indazol-6-yloxy)ethyl-amino)-1-hydroxy-ethyl)phenyl)-2-fluorobenzene-sulfonamide], in assay [2], the “α1 receptor % … Control; Epinephrine” value is recorded as 0.1% and the “α1 receptor % … Norepinephrine” value is 0.1%. For the same compound, the “β2 receptor %” value in assay [3] is listed as 0.5%. Moreover, in assay [4], the “β1 receptor %” value is listed as 23%.
`Nc1ccc(F)c(S(=O)(=O)Nc2cccc([C@@H](O)CNCCOc3ccc4c(Cl)n[nH]c4c3)c2)c1` [ex242, (R)-5-amino-N-(3-(2-(2-(3-chloroindazole-6-yloxy)ethylamino)-1-hydroxyethyl)phenyl)-2-fluorobenzenesulfonamide]: in assay [2], the “α1 receptor % … Control; Epinephrine” value worked out at 0.7% and the “α1 receptor % … Norepinephrine” value is reported as 0.6%. Further, the “β2 receptor %” value in assay [3] was −0.2%. In assay [4], the “β1 receptor %” value came to 9.4%.
Regarding “(R)-N-(3-(2-(2-(3- ethylindazol-6- yloxy)ethylamino)-1- hydroxyethyl)phenyl)- ? -methyli ? zole-4- sulfonamide [ex134]”, in assay [2], the “α1 receptor % … Control; Epinephrine” value came to 7.0% and the “α1 receptor % … Norepinephrine” value is on record as 6.0%. Moreover, the “β2 receptor %” value in assay [3] is recorded as 2.0%. In assay [4], the “β1 receptor %” value was found to be 7.0%.

The record behind these values is US20120225909A1, “INDAZOLE ANALOG” (priority 2009, published 2012).
